Test system: Puccinia recondita
Assay: Curative activity against brown rust of wheat (Puccrt K1), potted wheat seedlings cultivar Kanzler
Type: in vivo
Conditions: efficacy in % of untreated control, sprayed 1 day after inoculation, rated after 7 days, read-out: Observed activity (%)
Protocol: The active compounds were prepared separately or jointly as a stock solution with 25 mg of active compound which was made up to 10 ml using a mixture of acetone and/or DMSO and the emulsifier Uniperol® EL (wetting agent having emulsifying and dispersing action based on ethoxylated alkylphenols) in a volume ratio of solvent/emulsifier of 99 to 1. The mixture was then made up to 100 ml with water. This stock solution was diluted with the solvent/emulsifier/water mixture described to the concentration of active compounds stated below.
The visually determined percentages of infected leaf areas or the measured elongation were converted into efficacies in % of the untreated control:
The efficacy (E) is calculated as follows using Abbot's formula: […]
The expected efficacies of mixtures of active compounds were determined using Colby's formula (Colby, S. R. “Calculating synergistic and antagonistic responses of herbicide combinations”, Weeds, 15, pp. 20-22, 1967) and compared with the observed efficacies. […]
Leaves of potted wheat seedlings of the cultivar “Kanzler” were inoculated with a spore suspension of brown rust (Puccinia recondita). […] The extent of the rust fungus development on the leaves was then determined. The visually determined values for the percentage of infected leaf area were initially converted into a mean value and then converted into efficacies in % of the untreated control. […]

SMILES | inhibition at 250 µg/mL (Conc. 0.25 mg/ml) [%] | inhibition at 60 µg/mL (Conc. 0.06 mg/ml) [%]
Fc1ccc(C2(Cn3cncn3)OC2c2ccccc2Cl)cc1 (centres unmarked) [Epoxiconazole, epoxiconazole] | 11 | –
CCOC(=O)C1CC(=O)C(=C(O)C2CC2)C(=O)C1 (centres unmarked) [Trinexapac-ethyl, trinexapac-ethyl] | – | 0
